Assay results taken from PubChem BioAssay (NCI).
Several values for one entry are separate records, joined by “and”; a condition that tells them apart may be missing. Equal entries are not always repeated.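 All cell lines were grown in 96-well plates and treated with compound for 48 hours. GI50 is the concentration that inhibits growth by half. Definition used: TGI = concentration required for complete inhibition of growth.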

test system: ACHN renal; assay: NCI anticancer screen, dose series, 48 h

Row | Structure (SMILES) | GI50 | TGI
1 | COc1ccc(OC)c(/C=C/c2nc(=S)n(-c3ccc(Cl)cc3)[nH]2)c1 | 23.8 µM | > 100 µM
2 | COc1ccc2c(c1)C(=O)c1c-2c(Nc2ccccc2OC)nc2ccccc12 | 89.2 µM | > 100 µM
3 | COc1ccc2c(N)ncc(C#Cc3cc(C(=O)Nc4ccc(CN5CCN(C)CC5)c(C(F)(F)F)c4)cnc3C)c2c1 | 0.436 µM | 1.15 µM
4 | COc1cc2c(N3CCN(C(=O)Nc4ccc(OC(C)C)cc4)CC3)ncnc2cc1OCCCN1CCCCC1 | 20.8 µM | 55.6 µM
5 | Nc1ncc(Cc2ccc3c(c2)OCO3)c(N)n1 | – | > 100 µM
6 | c1ccc(-c2[nH]ncc2-c2ccnc(-c3ccc(OCCn4ccnc4)cc3)c2)nc1 | > 25 µM | > 25 µM
7 | O=C1c2cccc(Oc3ccccc3)c2C(=O)c2cccc(Oc3ccccc3)c21 | > 100 µM | > 100 µM
8 | O=C(OCc1ccc2c(Br)cc(Br)c(O)c2n1)c1cc2ccccc2[nH]1 | 0.352 µM | 1.27 µM
9 | CC(C)(CO)CNC(=O)c1ccc2[nH]c(O)c(N=Nc3ccc(S(N)(=O)=O)cc3)c2c1 | > 25 µM | > 25 µM
10 | Cc1cc(O)c2c(c1)C(=O)C=CC2=O | 4.43 µM and 4 µM | 8.57 µM and 15.6 µM
11 | CC1(C)N=C(N)N=C(N)N1c1ccc(CCC(=O)Nc2ccc(S(=O)(=O)F)cc2)cc1 | 7.34 µM | > 100 µM

test system: CCRF-CEM leukemia; assay: NCI anticancer screen, dose series, 48 h

Row | Structure (SMILES) | GI50 [µM] | TGI
12 | COc1ccc(OC)c(/C=C/c2nc(=S)n(-c3ccc(Cl)cc3)[nH]2)c1 | 4.77 | > 100 µM
13 | COc1ccc2c(c1)C(=O)c1c-2c(Nc2ccccc2OC)nc2ccccc12 | > 100 | > 100 µM
14 | COc1ccc2c(N)ncc(C#Cc3cc(C(=O)Nc4ccc(CN5CCN(C)CC5)c(C(F)(F)F)c4)cnc3C)c2c1 | 0.841 | 4.13 µM
15 | COc1cc2c(N3CCN(C(=O)Nc4ccc(OC(C)C)cc4)CC3)ncnc2cc1OCCCN1CCCCC1 | 18.3 | > 79.3 µM
16 | Nc1ncc(Cc2ccc3c(c2)OCO3)c(N)n1 | – | > 100 µM
17 | c1ccc(-c2[nH]ncc2-c2ccnc(-c3ccc(OCCn4ccnc4)cc3)c2)nc1 | 17.3 | > 25 µM
18 | O=C1c2cccc(Oc3ccccc3)c2C(=O)c2cccc(Oc3ccccc3)c21 | 7.14 | 30.3 µM
19 | O=C(OCc1ccc2c(Br)cc(Br)c(O)c2n1)c1cc2ccccc2[nH]1 | 0.293 | 2.03 µM
20 | CC(C)(CO)CNC(=O)c1ccc2[nH]c(O)c(N=Nc3ccc(S(N)(=O)=O)cc3)c2c1 | > 25 | > 25 µM
21 | Cc1cc(O)c2c(c1)C(=O)C=CC2=O | – | 0.564 µM and 1.19 µM
22 | CC1(C)N=C(N)N=C(N)N1c1ccc(CCC(=O)Nc2ccc(S(=O)(=O)F)cc2)cc1 | 0.73 | > 100 µM

test system: PC-3 prostate; assay: NCI anticancer screen, dose series, 48 h

Row | Structure (SMILES) | GI50 [µM] | TGI
23 | COc1ccc(OC)c(/C=C/c2nc(=S)n(-c3ccc(Cl)cc3)[nH]2)c1 | 8.91 | > 100 µM
24 | COc1ccc2c(c1)C(=O)c1c-2c(Nc2ccccc2OC)nc2ccccc12 | > 100 | > 100 µM
25 | COc1ccc2c(N)ncc(C#Cc3cc(C(=O)Nc4ccc(CN5CCN(C)CC5)c(C(F)(F)F)c4)cnc3C)c2c1 | 0.924 | 3.56 µM
26 | COc1cc2c(N3CCN(C(=O)Nc4ccc(OC(C)C)cc4)CC3)ncnc2cc1OCCCN1CCCCC1 | 18.8 | > 100 µM
27 | Nc1ncc(Cc2ccc3c(c2)OCO3)c(N)n1 | – | > 100 µM
28 | c1ccc(-c2[nH]ncc2-c2ccnc(-c3ccc(OCCn4ccnc4)cc3)c2)nc1 | 13.2 | > 25 µM
29 | O=C1c2cccc(Oc3ccccc3)c2C(=O)c2cccc(Oc3ccccc3)c21 | > 100 | > 100 µM
30 | O=C(OCc1ccc2c(Br)cc(Br)c(O)c2n1)c1cc2ccccc2[nH]1 | 0.965 | 2.68 µM
31 | CC(C)(CO)CNC(=O)c1ccc2[nH]c(O)c(N=Nc3ccc(S(N)(=O)=O)cc3)c2c1 | > 25 | > 25 µM
32 | Cc1cc(O)c2c(c1)C(=O)C=CC2=O | – | 46.3 µM and 25.5 µM
33 | CC1(C)N=C(N)N=C(N)N1c1ccc(CCC(=O)Nc2ccc(S(=O)(=O)F)cc2)cc1 | 0.0593 | > 72.1 µM

test system: SF-295 CNS; assay: NCI anticancer screen, dose series, 48 h

Row | Structure (SMILES) | GI50 [µM] | TGI
34 | COc1ccc(OC)c(/C=C/c2nc(=S)n(-c3ccc(Cl)cc3)[nH]2)c1 | 4.16 | > 100 µM
35 | COc1ccc2c(c1)C(=O)c1c-2c(Nc2ccccc2OC)nc2ccccc12 | > 100 | > 100 µM
36 | COc1ccc2c(N)ncc(C#Cc3cc(C(=O)Nc4ccc(CN5CCN(C)CC5)c(C(F)(F)F)c4)cnc3C)c2c1 | 4.78 | 16.7 µM
37 | COc1cc2c(N3CCN(C(=O)Nc4ccc(OC(C)C)cc4)CC3)ncnc2cc1OCCCN1CCCCC1 | 12.5 | 27.9 µM
38 | Nc1ncc(Cc2ccc3c(c2)OCO3)c(N)n1 | – | > 100 µM
39 | c1ccc(-c2[nH]ncc2-c2ccnc(-c3ccc(OCCn4ccnc4)cc3)c2)nc1 | > 25 | > 25 µM
40 | O=C1c2cccc(Oc3ccccc3)c2C(=O)c2cccc(Oc3ccccc3)c21 | 22.2 | > 100 µM
41 | O=C(OCc1ccc2c(Br)cc(Br)c(O)c2n1)c1cc2ccccc2[nH]1 | 3.32 | 7.68 µM
42 | CC(C)(CO)CNC(=O)c1ccc2[nH]c(O)c(N=Nc3ccc(S(N)(=O)=O)cc3)c2c1 | > 25 | > 25 µM
43 | Cc1cc(O)c2c(c1)C(=O)C=CC2=O | – | 32.7 µM and 39 µM
44 | CC1(C)N=C(N)N=C(N)N1c1ccc(CCC(=O)Nc2ccc(S(=O)(=O)F)cc2)cc1 | 4.49 | > 100 µM

test system: OVCAR-3 ovarian; assay: NCI anticancer screen, dose series, 48 h

Row | Structure (SMILES) | GI50 [µM] | TGI
45 | COc1ccc(OC)c(/C=C/c2nc(=S)n(-c3ccc(Cl)cc3)[nH]2)c1 | 3.34 | 21.4 µM
46 | COc1ccc2c(c1)C(=O)c1c-2c(Nc2ccccc2OC)nc2ccccc12 | > 100 | > 100 µM
47 | COc1ccc2c(N)ncc(C#Cc3cc(C(=O)Nc4ccc(CN5CCN(C)CC5)c(C(F)(F)F)c4)cnc3C)c2c1 | 1.31 | 5.29 µM
48 | COc1cc2c(N3CCN(C(=O)Nc4ccc(OC(C)C)cc4)CC3)ncnc2cc1OCCCN1CCCCC1 | 22.2 | > 59 µM
49 | Nc1ncc(Cc2ccc3c(c2)OCO3)c(N)n1 | – | > 100 µM
50 | c1ccc(-c2[nH]ncc2-c2ccnc(-c3ccc(OCCn4ccnc4)cc3)c2)nc1 | 22.4 | > 25 µM
51 | O=C1c2cccc(Oc3ccccc3)c2C(=O)c2cccc(Oc3ccccc3)c21 | > 100 | > 100 µM
52 | O=C(OCc1ccc2c(Br)cc(Br)c(O)c2n1)c1cc2ccccc2[nH]1 | 0.281 | 0.921 µM
53 | CC(C)(CO)CNC(=O)c1ccc2[nH]c(O)c(N=Nc3ccc(S(N)(=O)=O)cc3)c2c1 | > 25 | > 25 µM
54 | Cc1cc(O)c2c(c1)C(=O)C=CC2=O | – | 10 µM and 10.2 µM
55 | CC1(C)N=C(N)N=C(N)N1c1ccc(CCC(=O)Nc2ccc(S(=O)(=O)F)cc2)cc1 | 8.03 | > 100 µM
